In patent US9115093B2, “Substituted bicyclic dihydropyrimidinones and their use as inhibitors of neutrophil elastase activity” (Boehringer Ingelheim International GmbH, priority 2013, dated 2015):
Converted amounts (≈) assume the structure as drawn.

Columns and labels:
[1] = target: T1, neutrophil elastase (Homo sapiens, UniProt P08246); assay: Human Neutrophil Elastase Assay; assay type: biochemical; parameters: purchased Calbiochem 324681; settings: substrate MeOSuc-Ala-Ala-Pro-Val-AMC, pH 7.5, room temperature
T1 sequence (P08246 30-247 limits assumed): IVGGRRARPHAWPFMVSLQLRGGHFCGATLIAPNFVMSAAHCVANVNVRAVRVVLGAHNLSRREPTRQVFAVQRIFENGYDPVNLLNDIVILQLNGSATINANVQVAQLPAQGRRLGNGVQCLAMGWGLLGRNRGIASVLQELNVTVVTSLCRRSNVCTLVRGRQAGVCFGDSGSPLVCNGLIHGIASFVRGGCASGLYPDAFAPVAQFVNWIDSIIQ
Method in brief: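 Readout: AMC fluorescence (ex 380, em 460 nm) after 60 min room-temperature reaction with 250 nM MeOSuc-AAPV-AMC, following 15 min compound–enzyme preincubation. Buffer: Tris/NaCl pH 7.5, 0.01% BSA.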

[2] = target: T1, neutrophil elastase; assay: Neutrophil elastase inhibitory activity in human plasma; assay type: biochemical; parameters: The stimulated blood is centrifuged to generate the neutrophil elastase enriched plasma; from tissue; host or cells: plasma from zymosan-stimulated citrated whole blood of healthy human donors; settings: neutrophil elastase enriched human plasma (zymosan-stimulated blood), substrate MeOSuc-Ala-Ala-Pro-Val-AMC
Procedure: Assay for the Determination of Neutrophil Elastase Inhibitory Activity in Human Plasma
Citrated blood from human healthy donors is mixed with zymosan suspension and incubated at room temperature. This leads to the stimulation of neutrophils and the release of neutrophil elastase into the plasma. The stimulated blood is centrifuged to generate the neutrophil elastase enriched plasma.
Preparation of Zymosan Working Solution:
• single 45 ml blood sample is taken into a 50 ml tube containing citrate (3.13%, 5 mL) and the tube is gently inverted 4 times. • Immediately after blood sampling, zymosan working solution (5 mL) is added. • After the addition of zymosan working solution, the tubes are capped, mixed gently and incubated at 22° C. for 15 min on a shaker at 20 rpm. • Make 10 ml aliquots after the incubation time. • Centrifuge the 15 ml tubes at 800 g for […] at 4° C. in a Jouan centrifuge. • Harvest the plasma and make 1-5 ml aliquots. • Store the plasma at −80° C.
Various concentrations of the neutrophil elastase inhibitor are incubated with plasma. Subsequently, the enzyme activity is measured using the fluorogenic substrate MeOSuc-Ala-Ala-Pro-Val-AMC (Bachem Cat. No. 1-1270, substrate concentration: 250 μM, pH 7.5, 25 mM TRIS buffer, 250 mM NaCl) in analogous fashion as described for the human neutrophil assay. A dose response curve is generated to calculate the EC50 of the inhibitor. The analysis of the data is performed by the calculation of the percentage of fluorescence in the presence of the test compound compared to the fluorescence of the vehicle control after subtracting the background fluorescence: An inhibitor of the neutrophil elastase enzyme will give values between 100% control (no inhibition) and 0% control (complete inhibition). The human plasma shift of selected compounds can be calculated using the following equation: Human plasma shift=(EC50 in human plasma assay)/(IC50 in human neutrophil elastase assay) The EC50 values of selected compounds in the human plasma assay described above are listed in Table 14.

[3] = Aqueous solubility; assay type: physicochemical; settings: McIlvaine buffer pH 6.8, 2.5% DMSO, 24 h shaking; for solubility at 24 h: McIlvaine buffer with 2.5% DMSO
Procedure: Assay for Determination of Aqueous Solubility
The aqueous solubility of a compound is determined by comparing the amount dissolved in aqueous buffer (containing 2.5% DMSO) to the amount dissolved in an acetonitrile/water (1/1) solution. Starting from a 10 mM DMSO stock solution, aliquots are diluted with acetonitrile/water (1/1) and Mcllvaine buffer pH 6.8, respectively. After 24 h of shaking, the solutions or suspensions are filtered and analyzed by LC-UV. The amount dissolved in buffer is compared to the amount dissolved in the acetonitrile/water (1/1) solution. Solubility is measured from 0.001 to 0.125 mg/ml at a DMSO concentration of 2.5%. If more than 90% of the compound is dissolved in buffer, the value is marked with “>”.

Row | solubility at 24 h [3] | Compound | IC50 [1] | EC50 [2] | Aqueous solubility [3]
1 |  | CC(C)NC(=O)N1C(=O)N(c2cccc(C(F)(F)F)c2)C2=C(C(=O)CCC2)[C@H]1c1ccc(C#N)cc1S(C)(=O)=O [Example 75.3] | < 1 nM | 1 nM | 9 µg/mL
2 |  | CS(=O)(=O)c1cc(C#N)ccc1[C@@H]1C2=C(CCCC2=O)N(c2cccc(C(F)(F)F)c2)C(=O)N1C(=O)NCC(F)F [Example 75.7] | < 1 nM | 1 nM | 5 µg/mL
3 | 9 µg/mL (≈ 16.1 µM) | CS(=O)(=O)CCNC(=O)N1C(=O)N(c2cccc(C(F)(F)F)c2)C2=C(C(=O)CCC2)C1c1ccc(C#N)cc1 (stereo not drawn) [Example 39.19] | < 1 nM | 9 nM | 
4 | 6 µg/mL (≈ 12 µM) | N#Cc1ccc(C2C3=C(CCCC3=O)N(c3cccc(C(F)(F)F)c3)C(=O)N2C(=O)NCCO)cc1 (stereo not drawn) [Example 39.3] | < 1 nM | 6 nM | 
